{"source": "patent US9428465B2", "about": "“Acid ceramidase inhibitors and their use as medicaments” (FONDAZIONE ISTITUTO ITALIANO DI TECHNOLOGIA, priority 2012, dated 2016)", "key": {"[1]": {"molecular_target": "human acid ceramidase (hAC) (Homo sapiens (Human), UniProt Q13510)", "sequence (Q13510 143-395)": "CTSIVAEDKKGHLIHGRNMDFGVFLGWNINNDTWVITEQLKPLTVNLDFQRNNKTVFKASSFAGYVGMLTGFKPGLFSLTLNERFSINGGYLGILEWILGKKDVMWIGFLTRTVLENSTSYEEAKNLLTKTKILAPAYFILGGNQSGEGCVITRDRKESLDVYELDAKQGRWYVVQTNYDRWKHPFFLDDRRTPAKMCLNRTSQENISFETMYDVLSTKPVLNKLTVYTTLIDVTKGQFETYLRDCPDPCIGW", "sequence (Q13510 22-142)": "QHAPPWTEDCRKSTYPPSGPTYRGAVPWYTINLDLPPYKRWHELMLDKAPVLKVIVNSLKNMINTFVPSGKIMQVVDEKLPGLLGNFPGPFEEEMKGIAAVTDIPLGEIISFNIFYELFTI", "assay": "Human acid ceramidase (hAC) activity assay, UPLC/MS of lauric acid", "type": "biochemical", "conditions": "human acid ceramidase, 50 μM N-lauroyl ceramide, pH 4.5", "procedure": "Human acid ceramidase (hAC) cDNA was purchased from Open Biosystem (clone ID 3923451) and subcloned in the mammalian expression vector pCDNA3.1, containing the neomycin resistance gene. The cell line HEK293 was transfected with hAC-pCDNA3.1 construct using JetPEI reagent (Polypus Transfection™, Illkirch, FR) following the manufacturer instructions. A stable cell line of hAC-overexpressing HEK293 was generated by selection with G418 (1 mg/ml) and cell clones were derived by limited dilution plating. hAC-expressing clones were analyzed by western blot.\nHek293 cells overexpressing hAC were suspended in 20 mM Tris HCl (pH 7.5) containing 0.32M sucrose, sonicated and centrifuged at 800×g for 15 min at 4° C. The supernatants were centrifuged again at 12,000×g for 30 min at 4° C. The pellets were suspended in phosphate-buffered saline (PBS) and subjected to 2 freeze-thaw cycles at −80° C. The suspensions were centrifuged at 105,000×g for 1 h at 4° C. The supernatants containing hAC were kept at −80° C. until use. Protein concentration was measured using the bicinchoninic acid (BCA) assay (Pierce).\nA hAC protein preparation (10 μg) was preincubated with inhibitors (final DMSO concentration 1%) in assay buffer (100 mM sodium phosphate, 0.1% Nonidet P-40, 150 mM NaCl, 3 mM DTT, 100 mM sodium citrate, pH 4.5) for 30 min at 37° C. Reactions were started by the addition of 50 μM N-lauroyl ceramide (Nu-Chek Prep, Elysian, Minn.) and carried on for 30 min at 37° C. Reactions were stopped by addition of a mixture of chloroform/methanol (2:1, vol/vol) containing 1 nmol 11-lauroleic acid (NuChek Prep). The organic phases were collected, dried under nitrogen and analyzed by UPLC/MS (Acquity, Waters) in the negative-ion mode monitoring the reaction product (lauric acid, m/z=199) using 11-lauroleic acid as internal standard.\nLipids were eluted on an Acquity UPLC BEH C18 column (50 mm length, 2.1 mm i.d., 1.7 μm pore size, Waters) column at 0.5 mL-min^−1 for 1.5 min with a gradient of acetonitrile (CH3CN) and water, both containing 0.25% acetic acid and 5 mM ammonium acetate (70% to 100% CH3CN in 0.5 min, 100% CH3CN for 0.5 min, 70% CH3CN for 0.4 min). The column temperature was 40° C. Electrospray ionization (ESI) was in the negative mode, capillary voltage was 1 kV and cone voltage was 50 V. Nitrogen was used as drying gas at a flow rate of 500 L/h and at a temperature of 400° C.\nThe [M-H]^− ion was monitored in the selected-ion monitoring mode (m/z values: lauric acid 199, 11-lauroleic acid […]). Calibration curves were generated with authentic lauric acid (Nu Check Prep). Inhibition of acid ceramidase activity was calculated as reduction of lauric acid in the samples compared to vehicle controls. IC50 values were calculated by non-linear regression analysis of log [concentration]/inhibition curves using GraphPad Prism 5 (GraphPad Software Inc., CA, USA) applying a standard slope curve fitting."}, "SW403 cells": {"test_system": "SW403 cells", "assay": "Isobolographic analysis of combined treatment of SW403 cells (ED50, trypan blue assay)", "type": "cell-based, human", "procedure": "Interaction between drugs was assessed by isobolographic analysis, based on the concept of dose-equivalence which follows from the dose effect curves of the individual drugs (Tallarida R I, Interactions between drugs and occupied receptors. Pharmacol. Ther. 2007, 113, 197-209; Tallarida R J, Raffa R B, The application of drug dose equivalence in the quantitative analysis of receptor occupation and drug combinations. Pharmacol. Ther. 2010; 127, 165-174). Specifically, the individual drugs' potency and efficacy allow calculating the expected effect of a combination of the two drugs.\nIn the experiment of combined treatment, isobolograms were constructed by plotting on vertical and horizontal axes the ED50 data of the single drugs measured by trypan blue assay after subcronic treatment for 72 hrs. The straight line with axial intercepts represents the isobole of additivity and allows calculating the theoretical additive dose. Synergism is indicated by an observed pair (x, y) that plots below the isobole for the specified effect, whereas sub-additivity is indicated when an observed pair (x, y) plots above the isobole."}, "[2]": {"conditions": "SW403 cells, 72 hrs, isobole of additivity, higher than the experimental values"}}}
{"smiles": "CCCCCCNC(=O)n1cc(Br)c(=O)[nH]c1=O", "note": "[Example 5, 5-bromo-N-hexyl-2,4-dioxo-pyrimidine-1-carboxamide]", "values": [{"measurement": "IC50", "setting": "[1]", "value": 35, "unit": "nM"}, {"measurement": "theoretical dose (Th) to be used with 20 nM taxol to obtain an additive effect", "setting": "SW403 cells; [2]", "value": 9.5, "unit": "µM"}, {"measurement": "theoretical dose (Th) to be used with 300 nM 5FU to obtain an additive effect", "setting": "SW403 cells; [2]", "value": 14.9, "unit": "µM"}, {"measurement": "interaction with taxol in reducing viability of SW403 cells (isobologram)", "setting": "SW403 cells; prolonged treatment, 20 nM taxol, trypan blue ED50", "value": "synergistic effect"}, {"measurement": "interaction with 5-fluorouracil in reducing viability of SW403 cells (isobologram)", "setting": "SW403 cells; prolonged treatment, 300 nM 5FU, trypan blue ED50", "value": "synergistic effect"}]}
